{"source": "patent US20240229043A1", "about": "“Methods and Compositions for Treating, Ameliorating, and/or Preventing Chronic Kidney Disease (CKD) and Complications thereof by Regulating DPEP1, CASP9, ACSS2 and/or FASN” (THE TRUSTEES OF THE UNIVERSITY OF PENNSYLVANIA, priority 2022, published 2024)", "key": {"FASN [1]": {"biological_target": "T1, FASN (Mus musculus, UniProt P19096)", "T1 sequence (P19096 whole entry)": "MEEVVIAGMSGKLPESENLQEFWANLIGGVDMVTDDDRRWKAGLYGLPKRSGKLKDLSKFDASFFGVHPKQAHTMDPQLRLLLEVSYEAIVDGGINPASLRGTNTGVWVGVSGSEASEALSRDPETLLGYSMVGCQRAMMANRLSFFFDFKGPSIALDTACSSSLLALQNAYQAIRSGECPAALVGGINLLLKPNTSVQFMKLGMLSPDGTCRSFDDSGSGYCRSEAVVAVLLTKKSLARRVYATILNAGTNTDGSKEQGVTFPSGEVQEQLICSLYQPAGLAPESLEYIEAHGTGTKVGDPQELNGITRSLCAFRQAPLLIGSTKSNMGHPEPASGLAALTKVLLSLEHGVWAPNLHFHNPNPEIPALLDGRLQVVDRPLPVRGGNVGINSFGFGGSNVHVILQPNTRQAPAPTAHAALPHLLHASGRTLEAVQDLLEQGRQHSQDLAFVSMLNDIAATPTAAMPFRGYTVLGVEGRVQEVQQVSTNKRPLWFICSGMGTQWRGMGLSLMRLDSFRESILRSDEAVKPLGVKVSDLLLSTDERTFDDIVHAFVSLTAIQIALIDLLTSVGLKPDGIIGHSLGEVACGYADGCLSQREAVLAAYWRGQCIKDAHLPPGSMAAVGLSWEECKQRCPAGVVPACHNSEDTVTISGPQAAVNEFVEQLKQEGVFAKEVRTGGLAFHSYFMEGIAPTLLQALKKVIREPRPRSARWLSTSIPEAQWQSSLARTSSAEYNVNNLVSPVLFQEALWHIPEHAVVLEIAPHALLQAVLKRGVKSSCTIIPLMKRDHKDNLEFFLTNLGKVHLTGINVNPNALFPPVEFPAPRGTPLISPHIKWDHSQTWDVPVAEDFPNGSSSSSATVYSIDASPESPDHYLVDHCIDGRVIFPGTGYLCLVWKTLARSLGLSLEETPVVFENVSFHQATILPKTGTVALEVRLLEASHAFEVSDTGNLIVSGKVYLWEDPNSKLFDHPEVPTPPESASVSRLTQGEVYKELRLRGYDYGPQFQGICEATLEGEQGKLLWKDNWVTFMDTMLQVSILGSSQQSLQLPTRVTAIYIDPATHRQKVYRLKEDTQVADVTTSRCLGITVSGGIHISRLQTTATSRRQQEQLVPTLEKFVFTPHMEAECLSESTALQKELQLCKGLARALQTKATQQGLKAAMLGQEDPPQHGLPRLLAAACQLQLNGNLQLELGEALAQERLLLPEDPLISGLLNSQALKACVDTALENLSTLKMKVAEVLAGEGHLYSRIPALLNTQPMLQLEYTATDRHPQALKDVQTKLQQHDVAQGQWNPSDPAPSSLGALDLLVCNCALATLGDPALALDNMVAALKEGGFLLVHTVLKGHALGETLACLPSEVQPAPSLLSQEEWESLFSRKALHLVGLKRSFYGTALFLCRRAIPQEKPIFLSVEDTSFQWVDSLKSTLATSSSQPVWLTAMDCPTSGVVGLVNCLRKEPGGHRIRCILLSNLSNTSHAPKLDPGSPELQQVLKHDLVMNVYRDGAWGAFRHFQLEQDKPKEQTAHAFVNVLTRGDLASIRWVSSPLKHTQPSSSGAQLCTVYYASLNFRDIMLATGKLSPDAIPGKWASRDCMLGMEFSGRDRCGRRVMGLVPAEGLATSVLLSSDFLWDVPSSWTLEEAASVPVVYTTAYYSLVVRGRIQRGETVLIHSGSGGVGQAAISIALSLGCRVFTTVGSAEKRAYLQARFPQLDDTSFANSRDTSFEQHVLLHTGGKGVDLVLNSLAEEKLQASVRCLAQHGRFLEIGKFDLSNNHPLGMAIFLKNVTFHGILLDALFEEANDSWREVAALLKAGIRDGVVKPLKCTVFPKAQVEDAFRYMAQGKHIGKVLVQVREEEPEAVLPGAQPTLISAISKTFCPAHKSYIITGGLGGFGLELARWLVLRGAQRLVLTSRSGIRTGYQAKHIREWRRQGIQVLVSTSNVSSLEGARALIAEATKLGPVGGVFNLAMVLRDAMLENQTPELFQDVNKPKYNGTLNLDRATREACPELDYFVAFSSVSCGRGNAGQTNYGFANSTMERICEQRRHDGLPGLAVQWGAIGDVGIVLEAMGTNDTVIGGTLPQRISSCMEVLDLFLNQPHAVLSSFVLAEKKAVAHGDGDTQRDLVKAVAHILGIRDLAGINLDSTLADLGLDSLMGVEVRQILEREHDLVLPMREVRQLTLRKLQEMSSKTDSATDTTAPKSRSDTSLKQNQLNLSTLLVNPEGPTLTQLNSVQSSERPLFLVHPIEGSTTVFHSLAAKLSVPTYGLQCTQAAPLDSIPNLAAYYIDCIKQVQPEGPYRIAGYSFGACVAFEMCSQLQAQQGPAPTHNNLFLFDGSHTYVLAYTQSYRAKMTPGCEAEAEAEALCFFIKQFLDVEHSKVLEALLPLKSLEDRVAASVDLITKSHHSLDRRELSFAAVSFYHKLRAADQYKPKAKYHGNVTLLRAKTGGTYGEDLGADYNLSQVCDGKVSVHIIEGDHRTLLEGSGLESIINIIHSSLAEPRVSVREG"}, "FASN [2]": {"biological_target": "T1, FASN", "assay_type": "in vivo", "experimental": "(§1) Animal studies were approved by the Institutional Animal Care and Use Committee (IACUC) of the University of Pennsylvania. Mice were housed in pathogen free conditions with 12 h dark and light cycle in a temperature- and humidity-controlled environment (23±1). The mice were fed ad libitum with water and rodent standard chow diet. 6- to 7-week-old male and female C57BL/6J mice were used in the study. Mice were randomly assigned to experimental groups for all experiments including drug efficacy studies. To induce kidney injury, the present study employed two widely used kidney disease models including unilateral ureteral obstruction (UUO) and folic acid nephropathy (FAN). UUO surgery experiments were conducted on male and female mice. Briefly, UUO was performed by ligating the right kidney ureter, and the left kidney served as a sham operated kidney. Post-surgical procedures were followed according to the IACUC guidelines. For FAN models, 300 mM sodium bicarbonate (NaHCO3) solution was first made to solubilize folic acid (FA) and injected into male mice (FA 250 mg/kg i.p at single dose). Mice were sacrificed 7 days following injection or surgery. For the drug injection studies, mice were first injected one day before the UUO surgery.\n(§2) Approximately 20-30 mg of kidney tissue was homogenized in SDS-blue loading buffer (#7722, CST) containing 42 mM DTT. Samples were loaded onto the SDS-PAGE gels and run at 100v for 1 h 40 min at RT in Tris-Glycine-SDS buffer. The proteins were transferred onto a PVDF membrane. Membranes were blocked with 3% non-fat dry milk powder in tris-buffer saline containing Tween-20 (TBST) for 30 min at RT. The blots were then incubated with primary antibody overnight at 4OC. After primary antibody incubation, the blots were washed three times with TBST, IRdye-conjugated secondary antibodies were probed for 1 h at RT. Finally, the blots were washed in TBST for three minutes each, 10 min at RT, and scanned at 600, 700, and 800 excitation wavelengths in Li-COR imager (Odysseyφ XF), Image Studio software. The images were quantified for relative abundance in Image J software.\n(§3) The tissues were fixed in formalin, dehydrated by an ethanol gradient (30%, 50%, 75% and 95%) and then submitted to the histology Core in 100% ethanol. Once the tissue was sectioned, H&E and Sirius red staining was performed. Images were acquired in Olympus 5000 microscope with Cell Sense software. Percentage of relative fibrosis was quantified in image J.\n(§4) For the inhibitor studies, littermate mice were randomly assigned to receive either FASNall or ACSS2i. A single dose of 1 mg/ml FASNall was given via i.p injection at 10 mg/kg body weight one day prior to the UUO surgery. Mice were sacrificed 3 days after UUO surgery, and their kidneys were harvested. ACSS2i was injected at 20 mg/kg body weight via i.p injection one day prior to UUO surgery, followed by daily injections for 5 days. Mice sacrificed on the 7th day after UUO surgery."}, "FASN [3]": {"biological_target": "T1, FASN", "assay_type": "cell-based", "experimental": "The NADPH/NADP+ ratio was calculated according to the manufacturer protocol (#G1009, Promega). Briefly, an equal number of cells were cultured in a 96-well format and starved overnight for TGF-beta 1 treatments. Next, the cells were lysed in 20% DTAB containing Basic solution for 10 min at RT. Samples were processed according to the protocol for measuring NADPH and NADP+ from the same well simultaneously. The absolute and relative NADPH/NADP+ values were calculated according to the manufacturer's formula.\nReduced and oxidized glutathione levels were measured according to the Glutathione Colorimetric Detection Kit (#EIAGSHC, Thermo Scientific) from the same well after completion of all treatments.\n(§5) Primary cells were cultured on microscopic cover glass overnight until they reached 70% confluency. Cells were incubated in a 5 μM MitoSox (#M36008, Thermo Scientific) solution for 10 min in incubator and processed for imaging and quantifications. Cells were also incubated in 10 μM JC-1 (#T3168, Thermo Scientific) for 10 min and then proceeded with imaging and quantifications."}, "ACSS2 [4]": {"biological_target": "ACSS2 (Homo sapiens, UniProt Q9NR19)", "sequence (Q9NR19 whole entry, species assumed)": "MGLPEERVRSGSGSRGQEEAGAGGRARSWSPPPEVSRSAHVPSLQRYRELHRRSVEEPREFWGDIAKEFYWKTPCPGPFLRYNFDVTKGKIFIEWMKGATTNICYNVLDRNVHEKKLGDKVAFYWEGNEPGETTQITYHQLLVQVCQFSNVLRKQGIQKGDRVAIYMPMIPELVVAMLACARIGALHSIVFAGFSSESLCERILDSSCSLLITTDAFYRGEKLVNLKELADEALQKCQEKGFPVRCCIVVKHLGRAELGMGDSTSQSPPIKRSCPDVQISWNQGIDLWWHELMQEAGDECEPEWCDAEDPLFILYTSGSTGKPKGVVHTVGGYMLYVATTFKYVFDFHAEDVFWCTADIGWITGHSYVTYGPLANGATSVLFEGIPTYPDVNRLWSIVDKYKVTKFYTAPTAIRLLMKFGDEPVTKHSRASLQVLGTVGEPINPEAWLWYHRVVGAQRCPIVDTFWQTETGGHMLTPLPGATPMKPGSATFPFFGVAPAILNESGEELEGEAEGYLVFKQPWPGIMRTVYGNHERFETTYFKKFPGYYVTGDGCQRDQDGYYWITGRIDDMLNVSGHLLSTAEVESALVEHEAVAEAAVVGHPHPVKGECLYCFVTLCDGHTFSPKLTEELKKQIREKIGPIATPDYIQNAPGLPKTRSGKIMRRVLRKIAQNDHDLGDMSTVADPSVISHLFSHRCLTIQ", "conditions": "cell and animal models; cited from earlier work"}, "ACSS2 [5]": {"biological_target": "T2, ACSS2 (Mus musculus, UniProt Q9QXG4)", "T2 construct": "from tissue; host or cells: living C57BL/6J mice; read-outs in kidney", "T2 sequence (Q9QXG4 whole entry)": "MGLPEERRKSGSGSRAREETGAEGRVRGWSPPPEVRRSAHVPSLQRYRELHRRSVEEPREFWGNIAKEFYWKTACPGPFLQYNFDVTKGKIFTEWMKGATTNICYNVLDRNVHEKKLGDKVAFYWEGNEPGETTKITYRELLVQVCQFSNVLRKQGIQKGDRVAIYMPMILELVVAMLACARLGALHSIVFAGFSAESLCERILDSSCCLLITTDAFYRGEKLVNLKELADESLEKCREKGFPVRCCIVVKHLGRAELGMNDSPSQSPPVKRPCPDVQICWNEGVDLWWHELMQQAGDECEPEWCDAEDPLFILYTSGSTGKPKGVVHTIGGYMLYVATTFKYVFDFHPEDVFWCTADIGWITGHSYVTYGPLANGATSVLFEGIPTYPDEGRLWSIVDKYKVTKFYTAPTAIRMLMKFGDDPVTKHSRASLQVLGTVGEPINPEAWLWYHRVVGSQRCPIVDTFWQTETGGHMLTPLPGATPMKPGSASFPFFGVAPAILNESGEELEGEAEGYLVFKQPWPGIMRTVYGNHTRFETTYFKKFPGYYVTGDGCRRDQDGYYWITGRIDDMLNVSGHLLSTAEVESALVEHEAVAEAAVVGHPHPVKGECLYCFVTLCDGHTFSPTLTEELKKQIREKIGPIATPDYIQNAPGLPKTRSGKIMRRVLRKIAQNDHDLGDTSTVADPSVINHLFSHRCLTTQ", "assay": "UUO mouse model of kidney fibrosis with ACSS2i", "assay_type": "in vivo, mice", "experimental": "as §1, §2, §3, §4"}, "mitochondrial ROS": {"tested_on": "mitochondrial ROS", "assay": "MitoTempo in TGF-beta 1 treated primary tubule cells", "assay_type": "cell-based, mice", "experimental": "as §5\nCells cultured as above and pretreated with 100 μM MitoTempo (#SML0737, Sigma) for 2 h, followed by TGF-beta 1 treatments while MitoTempo was still present."}, "primary TECs": {"tested_on": "primary TECs", "assay": "Cisplatin-treated primary kidney tubule cells from wild-type and Chmp1a+/- mice", "assay_type": "cell-based", "experimental": "For primary culture of renal tubule cells, kidneys were collected from 2- to 4-week-old male mice. Cells were isolated by 2 mg/ml collagenase I (Gibco #17018-029) digestion for 30 min at 37° C. with gentle stirring and filtered through a 100-μm mesh. The cell suspension was cultured in RPMI 1640 (Corning #10-040-CM) supplement with 10% FBS (Atlanta Biologicals #S11950), 20 ng/ml EGF (Peprotech #AF-100-15), 1×ITS (Gibco #51500-056), and 1% penicillin-streptomycin (Corning #30-002-CI) at 5% CO2 and 37° C.\nPrimary cultured renal tubule cells or NRK52E cells were incubated with 1 μM transferrin (Thermo Fisher #T13342) for 4 h, or 5 μM mitoSOX (ThermoFisher #M36008) for 10 min, or 2 μM BODIPY™ 581/591 C11 (Thermo Fisher #D3861) for 0.5 h, or 20 ng/ml dextran conjugated to 488 (Thermo Fisher #D22910) for 2 h, at 5% CO2 and 37° C., respectively. After washing with PBS, cells were imaged directly under the confocal or regular fluorescence microscope.\nMouse primary tubular epithelial cells from wild-type, mutant mice or NRK52E cells were plated in 96-well plate. Transfection of NRK52E cells with siRNA was carried out as described above. […] Cells were harvested and stained with trypan blue (Thermo Fisher #T10282) to visualize dead cells. Cell counts were analyzed in Countess Auto Counter (Invitrogen, C10227). LDH release was quantified using CytoTox 96 Non-Radioactive Cytotoxicity Assay (Promega #G1780). Medium was collected in triplicates, spun down, and incubated in a 96-well plate with the CytoTox reagent for 20-30 min. After adding the stop solution, the absorbance signal was measured at 490 nm in a plate reader. The ratio between dead cell and live cell was calculated through the measurement using MultiTox-Fluor Multiplex Cytotoxicity Assay (Promega #9201). Cells were incubated in assay buffer containing live cell substrate GF-AFC and dead cell substrate bis-AAF-R110 for 30 min at 37° C. The plate fluorescence was measured using a plate reader as following: viability: excitation ˜400 nm; emission ˜505 nm. cytotoxicity: excitation ˜485 nm; emission ˜520 nm."}}, "note": "“Also recorded” adds a separate entry of the source.", "data": [{"compound": "Cc1sc2ncnc(NC3CCN(Cc4ccccc4)C3)c2c1C", "note": "(stereo not drawn) [FASNall]", "values": [{"measurement": "cell death (cell viability)", "setting": "FASN [1]", "result": "did not increase cell death"}, {"measurement": "Protein levels of FN1 and α-SMA", "setting": "FASN [2]; UUO kidneys", "result": "suppressed; also recorded: lower"}, {"measurement": "TGs (TAGs) levels in kidney", "setting": "FASN [2]; UUO kidneys", "result": "prevented; also recorded: lower"}, {"measurement": "fibrosis markers Acta2, Col1a1, Col3a, and Fn1 gene expression", "setting": "FASN [2]; UUO kidneys", "result": "lower"}, {"measurement": "gene expression of NLRP3, IL-1B, IL18, caspase1 and Gsdmd", "setting": "FASN [2]; UUO kidneys", "result": "lower"}, {"measurement": "lipid accumulation (Oil red O staining)", "setting": "FASN [2]; UUO kidneys", "result": "attenuated; also recorded: lower"}, {"measurement": "tissue scarring (Sirius red staining)", "setting": "FASN [2]; UUO kidneys vs vehicle", "result": "less"}, {"measurement": "tubule atrophy and fibrosis (histological analysis)", "setting": "FASN [2]; UUO kidneys vs vehicle", "result": "lower"}, {"measurement": "Protein levels of NLRP3, caspase1, cleaved caspase1 (p20), F-GSDMD, and N-GSDMD", "setting": "FASN [2]; UUO kidneys vs vehicle treated", "result": "lower"}, {"measurement": "Fasn and Plin2 expression", "setting": "FASN [2]; UUO kidneys, single dose 10 mg/kg i.p., 10 mg/kg", "result": "significantly prevented; also recorded: ameliorated"}, {"measurement": "kidney injury and fibrosis / kidney disease development", "setting": "FASN [2]; mice", "result": "prevented kidney injury and fibrosis development; also recorded: protect mice from kidney disease development"}, {"measurement": "less negative mitochondrial membrane potential (monomeric JC-1 accumulation)", "setting": "FASN [3]; TGF-beta 1 treated WT cells", "result": "attenuated this effect"}, {"measurement": "GSH levels and relative GSH/GSSH ratio", "setting": "FASN [3]; TGF-beta 1 treated cells", "result": "preserved"}, {"measurement": "NADPH/NADP+ ratio", "setting": "FASN [3]; TGF-beta 1 treated tubule cells", "result": "preserved"}]}, {"compound": "COCCNC(=O)Nc1ccc2nc(-c3cccs3)c(-c3cccs3)nc2c1", "note": "[ACSS2i]", "values": [{"measurement": "obesity-induced multiple myeloma growth", "setting": "ACSS2 [4]", "result": "reduce"}, {"measurement": "fibrosis and tubule atrophy (H&E, Sirius red quantification)", "setting": "ACSS2 [5]; UUO", "result": "markedly lower"}, {"measurement": "Gene and protein expression of fibrosis markers (Acta2, Col1a1, Col3a, and Fn1)", "setting": "ACSS2 [5]; UUO kidney injury", "result": "reduced fibrosis; also recorded: protective effect"}, {"measurement": "gene expression of NLRP3, IL-1B, IL18, caspase1 and Gsdmd", "setting": "ACSS2 [5]; UUO kidneys", "result": "lower"}, {"measurement": "lipid accumulation (Fasn, Plin2 expression, TG accumulation)", "setting": "ACSS2 [5]; UUO kidneys", "result": "inhibited"}, {"measurement": "Protein levels of NLRP3, caspase1, cleaved caspase1 (p20), F-GSDMD, and N-GSDMD", "setting": "ACSS2 [5]; UUO kidneys vs vehicle treated", "result": "lower"}, {"measurement": "kidney disease development", "setting": "ACSS2 [5]; mice", "result": "protect mice from kidney disease development"}, {"measurement": "collagen fibers staining (Sirius Red)", "setting": "ACSS2 [5]; vs vehicle alone", "result": "reduced"}, {"measurement": "UUO induced kidney injury (H&E analysis)", "setting": "ACSS2 [5]; vs vehicle injected mice", "result": "prevented"}]}, {"compound": "CC1(C)CC(NC(=O)C[P+](c2ccccc2)(c2ccccc2)c2ccccc2)CC(C)(C)N1[O]", "note": "[Mito-TEMPO]", "values": [{"measurement": "inflammasome activation (IL-1B, IL18, and caspase1 increase)", "setting": "mitochondrial ROS; following TGF-beta 1 treatment, MitoTempo 100 μM", "result": "efficiently lowered"}, {"measurement": "TGF-beta 1 induced expression of fibrosis markers / fibrotic genes", "setting": "mitochondrial ROS; primary TECs", "result": "lowered; also recorded: diminished"}, {"measurement": "LDH release induced by cisplatin", "setting": "primary TECs; Chmp1a+/- primary TECs", "result": "markedly lowered"}, {"measurement": "lipid peroxidation (C11 BODIPY 581/591) induced by cisplatin", "setting": "primary TECs; primary TECs from wild-type or Chmp1a+/- mice", "result": "markedly lowered"}]}]}
